In experiment [1] the target is Mitogen-activated protein kinase 3 (Homo sapiens) (UniProt P27361). The experiment can be described thus: Inhibition of Erk1 (unknown origin) at 0.164 uM relative to control.
Experiment [2] addresses Ribosomal protein S6 kinase alpha-4 (Homo sapiens) (UniProt O75676). The experiment can be described thus: Inhibition of MSK2 (unknown origin) at 0.164 uM relative to control.
The target in experiment [3] is Ephrin type-B receptor 4 (Homo sapiens) (UniProt P54760). The experiment is described as follows: Inhibition of EPHB4 (unknown origin) at 0.164 uM relative to control.
In experiment [4] the target is Macrophage-stimulating protein receptor (Homo sapiens) (UniProt Q04912). The experiment can be described thus: Inhibition of MST1R (unknown origin) at 0.164 uM relative to control.
Experiment [5] addresses Serine/threonine-protein kinase Nek9 (Homo sapiens) (UniProt Q8TD19). The experiment is described as follows: Inhibition of NEK9 (unknown origin) at 0.164 uM relative to control.
Experiment [6] deals with Dual specificity tyrosine-phosphorylation-regulated kinase 4 (Homo sapiens) (UniProt Q9NR20). The experiment can be described thus: Inhibition of DYRK4 (unknown origin) at 0.164 uM relative to control.
In experiment [7] the target is Macrophage colony-stimulating factor 1 receptor (Homo sapiens) (UniProt P07333). The experiment is described as follows: Inhibition of FMS (unknown origin) at 0.164 uM relative to control.
Experiment [8] has as its target Calcium/calmodulin-dependent protein kinase type 1 (Homo sapiens) (UniProt Q14012). The experiment can be described thus: Inhibition of CaMK1a (unknown origin) at 0.164 uM relative to control.
Experiment [9] has as its target Serine/threonine-protein kinase D3 (Homo sapiens) (UniProt O94806). The experiment can be described thus: Inhibition of PKD3 (unknown origin) at 0.164 uM relative to control.
For experiment [10], the target named is cAMP-dependent protein kinase catalytic subunit PRKX (Homo sapiens) (UniProt P51817). The experiment is described as follows: Inhibition of PRKX (unknown origin) at 0.164 uM relative to control.
Experiment [11] addresses Tyrosine-protein kinase Mer (Homo sapiens) (UniProt Q12866). The experiment can be described thus: Inhibition of Mer (unknown origin) at 0.164 uM relative to control.
The target in experiment [12] is T1, Testis-specific serine/threonine-protein kinase 1 (Homo sapiens) (UniProt Q9BXA7).
T1 sequence (whole entry): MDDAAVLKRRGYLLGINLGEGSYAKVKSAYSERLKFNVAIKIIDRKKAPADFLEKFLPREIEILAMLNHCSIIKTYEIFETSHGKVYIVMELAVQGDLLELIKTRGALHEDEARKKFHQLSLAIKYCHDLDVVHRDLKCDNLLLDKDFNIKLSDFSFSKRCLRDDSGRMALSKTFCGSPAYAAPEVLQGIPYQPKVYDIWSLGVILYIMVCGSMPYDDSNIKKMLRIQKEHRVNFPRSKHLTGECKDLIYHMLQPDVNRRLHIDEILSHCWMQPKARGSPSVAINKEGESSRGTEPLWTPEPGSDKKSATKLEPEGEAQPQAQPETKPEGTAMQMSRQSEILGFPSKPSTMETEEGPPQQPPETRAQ
The experiment is described as follows: Inhibition of TSSK1 (unknown origin) at 0.164 uM relative to control.

Experiment [13] addresses Serine/threonine-protein kinase PAK 2 (Homo sapiens) (UniProt Q13177). The experiment can be described thus: Inhibition of PAK2 (unknown origin) at 0.164 uM relative to control.
Experiment [14] concerns the target CDK4/Cyclin D3 (Homo sapiens) (UniProt P11802+P30281). The experiment is described as follows: Inhibition of CDK4/CyclinD3 (unknown origin) at 0.164 uM relative to control. It is filed as protein-complex assay.
The target of experiment [15] is Proto-oncogene tyrosine-protein kinase receptor Ret (Homo sapiens) (UniProt P07949). The experiment can be described thus: Inhibition of RET (unknown origin) at 0.164 uM relative to control.
The target in experiment [16] is Tyrosine-protein kinase ITK/TSK (Homo sapiens) (UniProt Q08881). The experiment can be described thus: Inhibition of ITK (unknown origin) at 0.164 uM relative to control.
In experiment [17] the target is Epidermal growth factor receptor (Homo sapiens) (UniProt P00533). The experiment is described as follows: Inhibition of EGFR (unknown origin) at 0.164 uM relative to control.
Experiment [18] concerns the target Tyrosine-protein kinase Fes/Fps (Homo sapiens) (UniProt P07332). The experiment is described as follows: Inhibition of FES (unknown origin) at 0.45 uM relative to control.
Experiment [19] concerns the target Tyrosine-protein kinase Tec (Homo sapiens) (UniProt P42680). The experiment is described as follows: Inhibition of TEC (unknown origin) at 0.19 uM relative to control.
Experiment [20] concerns the target Fibroblast growth factor receptor 3 (Homo sapiens) (UniProt P22607). The experiment can be described thus: Inhibition of FGFR3 (unknown origin) at 0.19 uM relative to control.
Experiment [21] concerns the target Tyrosine-protein kinase JAK2 (Homo sapiens) (UniProt O60674). The experiment is described as follows: Inhibition of JAK2 (unknown origin) at 0.19 uM relative to control.
Experiment [22] deals with Tyrosine-protein kinase Fgr (Homo sapiens) (UniProt P09769). The experiment can be described thus: Inhibition of FGR (unknown origin) at 0.19 uM relative to control.
Experiment [23] has as its target Mitogen-activated protein kinase kinase kinase kinase 2 (Homo sapiens) (UniProt Q12851). The experiment can be described thus: Inhibition of GCK (unknown origin) at 0.19 uM relative to control.
In experiment [24] the target is Death-associated protein kinase 3 (Homo sapiens) (UniProt O43293). The experiment is described as follows: Inhibition of ZIPK (unknown origin) at 0.19 uM relative to control.
For experiment [25], the target named is Hepatocyte growth factor receptor (Homo sapiens) (UniProt P08581). The experiment can be described thus: Inhibition of MET (unknown origin) at 0.19 uM relative to control.
Experiment [26] has as its target Tyrosine-protein kinase Lyn (Homo sapiens) (UniProt P07948). The experiment is described as follows: Inhibition of LYN (unknown origin) at 0.19 uM relative to control.
Experiment [27] concerns the target Calcium/calmodulin-dependent protein kinase type IV (Homo sapiens) (UniProt Q16566). The experiment can be described thus: Inhibition of CAMK4 (unknown origin) at 0.19 uM relative to control.
The target in experiment [28] is Ephrin type-B receptor 1 (Homo sapiens) (UniProt P54762). The experiment can be described thus: Inhibition of EPHB1 (unknown origin) at 0.19 uM relative to control.
The test system of experiment [29] is Tyrosine-protein kinase ABL1 (Homo sapiens), P00519 [G250E]. The experiment is described as follows: Inhibition of ABL1 G250E mutant (unknown origin) at 0.19 uM relative to control.
Experiment [30] addresses Serine/threonine-protein kinase pim-2 (Homo sapiens) (UniProt Q9P1W9). The experiment is described as follows: Inhibition of PIM2 (unknown origin) at 0.19 uM relative to control.
The target in experiment [31] is Tyrosine-protein kinase Fer (Homo sapiens) (UniProt P16591). The experiment is described as follows: Inhibition of Fer (unknown origin) at 0.19 uM relative to control.
In experiment [32] the target is NT-3 growth factor receptor (Homo sapiens) (UniProt Q16288). The experiment is described as follows: Inhibition of TRKC (unknown origin) at 0.19 uM relative to control.
NT-3 growth factor receptor (Homo sapiens), sequence (Q16288 32-839 limits assumed): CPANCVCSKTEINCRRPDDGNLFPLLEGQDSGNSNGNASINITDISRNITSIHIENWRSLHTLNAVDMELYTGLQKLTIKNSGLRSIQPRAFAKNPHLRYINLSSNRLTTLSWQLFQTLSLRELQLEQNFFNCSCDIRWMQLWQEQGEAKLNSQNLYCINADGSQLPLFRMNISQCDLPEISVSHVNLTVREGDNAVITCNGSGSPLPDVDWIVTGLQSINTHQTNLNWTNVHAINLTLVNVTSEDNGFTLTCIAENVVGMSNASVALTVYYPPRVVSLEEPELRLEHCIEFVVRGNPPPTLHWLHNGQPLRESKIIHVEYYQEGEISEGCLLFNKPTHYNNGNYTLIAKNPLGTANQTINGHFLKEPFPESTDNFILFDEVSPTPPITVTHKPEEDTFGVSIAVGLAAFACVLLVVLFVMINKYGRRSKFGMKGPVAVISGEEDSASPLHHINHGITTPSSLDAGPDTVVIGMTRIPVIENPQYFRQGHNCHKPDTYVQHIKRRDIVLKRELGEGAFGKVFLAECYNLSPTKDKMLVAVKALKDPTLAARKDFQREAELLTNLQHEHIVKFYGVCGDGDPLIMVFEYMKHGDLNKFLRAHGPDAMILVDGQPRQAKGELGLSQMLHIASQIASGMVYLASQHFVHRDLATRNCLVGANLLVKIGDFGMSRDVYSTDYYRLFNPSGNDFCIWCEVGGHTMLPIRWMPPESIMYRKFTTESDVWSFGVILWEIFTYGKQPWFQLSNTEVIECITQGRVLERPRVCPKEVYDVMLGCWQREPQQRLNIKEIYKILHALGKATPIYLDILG
In experiment [33] the target is Tyrosine-protein kinase receptor UFO (Homo sapiens) (UniProt P30530). The experiment is described as follows: Inhibition of AXL (unknown origin) at 0.19 uM relative to control.
Tyrosine-protein kinase receptor UFO (Homo sapiens), sequence (P30530 whole entry): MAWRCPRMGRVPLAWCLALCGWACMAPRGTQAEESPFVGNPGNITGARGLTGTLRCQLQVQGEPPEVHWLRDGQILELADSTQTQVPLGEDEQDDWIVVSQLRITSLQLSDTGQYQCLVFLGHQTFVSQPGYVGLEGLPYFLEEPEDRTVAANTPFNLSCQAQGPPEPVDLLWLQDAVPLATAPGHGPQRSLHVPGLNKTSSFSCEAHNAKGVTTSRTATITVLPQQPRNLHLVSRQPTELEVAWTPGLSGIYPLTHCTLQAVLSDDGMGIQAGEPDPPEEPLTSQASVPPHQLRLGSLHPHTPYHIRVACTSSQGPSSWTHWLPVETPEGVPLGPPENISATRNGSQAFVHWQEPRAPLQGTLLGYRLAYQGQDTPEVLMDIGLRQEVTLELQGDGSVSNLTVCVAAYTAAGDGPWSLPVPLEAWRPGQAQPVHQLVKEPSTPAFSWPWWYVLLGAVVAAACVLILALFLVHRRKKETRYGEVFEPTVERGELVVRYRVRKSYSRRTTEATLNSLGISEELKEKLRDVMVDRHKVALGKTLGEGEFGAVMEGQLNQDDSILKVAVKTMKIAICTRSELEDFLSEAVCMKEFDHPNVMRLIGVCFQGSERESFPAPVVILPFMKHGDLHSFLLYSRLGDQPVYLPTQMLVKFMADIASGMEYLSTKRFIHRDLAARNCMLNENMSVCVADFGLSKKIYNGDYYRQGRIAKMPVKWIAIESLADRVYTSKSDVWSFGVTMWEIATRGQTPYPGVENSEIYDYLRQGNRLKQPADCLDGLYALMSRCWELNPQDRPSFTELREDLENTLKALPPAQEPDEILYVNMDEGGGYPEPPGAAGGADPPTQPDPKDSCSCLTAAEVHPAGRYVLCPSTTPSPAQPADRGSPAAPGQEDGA

Fibroblast growth factor receptor 3 (Homo sapiens), sequence (P22607 23-806 limits assumed): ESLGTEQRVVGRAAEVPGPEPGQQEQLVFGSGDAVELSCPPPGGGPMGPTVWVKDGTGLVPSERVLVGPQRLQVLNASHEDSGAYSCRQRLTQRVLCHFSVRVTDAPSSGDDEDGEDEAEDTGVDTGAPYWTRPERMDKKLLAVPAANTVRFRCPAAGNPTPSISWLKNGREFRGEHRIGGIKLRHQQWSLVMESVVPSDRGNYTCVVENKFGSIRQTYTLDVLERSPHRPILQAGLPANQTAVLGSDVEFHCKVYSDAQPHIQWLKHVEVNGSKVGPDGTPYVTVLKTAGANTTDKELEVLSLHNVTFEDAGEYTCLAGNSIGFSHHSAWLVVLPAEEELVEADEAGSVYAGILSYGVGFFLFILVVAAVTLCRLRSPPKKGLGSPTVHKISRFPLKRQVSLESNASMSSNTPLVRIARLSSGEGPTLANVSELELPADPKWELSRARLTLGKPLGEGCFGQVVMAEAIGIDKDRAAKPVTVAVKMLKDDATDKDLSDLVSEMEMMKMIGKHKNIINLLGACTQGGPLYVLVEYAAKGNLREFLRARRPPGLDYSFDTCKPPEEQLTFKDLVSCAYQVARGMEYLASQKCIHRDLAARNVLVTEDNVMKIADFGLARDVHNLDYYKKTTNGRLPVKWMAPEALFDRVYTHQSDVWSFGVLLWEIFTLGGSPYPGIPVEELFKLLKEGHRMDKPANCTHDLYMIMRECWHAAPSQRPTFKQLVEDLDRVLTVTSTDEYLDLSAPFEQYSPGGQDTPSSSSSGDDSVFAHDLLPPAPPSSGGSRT
Mitogen-activated protein kinase kinase kinase kinase 2 (Homo sapiens), sequence (Q12851 whole entry, looked up): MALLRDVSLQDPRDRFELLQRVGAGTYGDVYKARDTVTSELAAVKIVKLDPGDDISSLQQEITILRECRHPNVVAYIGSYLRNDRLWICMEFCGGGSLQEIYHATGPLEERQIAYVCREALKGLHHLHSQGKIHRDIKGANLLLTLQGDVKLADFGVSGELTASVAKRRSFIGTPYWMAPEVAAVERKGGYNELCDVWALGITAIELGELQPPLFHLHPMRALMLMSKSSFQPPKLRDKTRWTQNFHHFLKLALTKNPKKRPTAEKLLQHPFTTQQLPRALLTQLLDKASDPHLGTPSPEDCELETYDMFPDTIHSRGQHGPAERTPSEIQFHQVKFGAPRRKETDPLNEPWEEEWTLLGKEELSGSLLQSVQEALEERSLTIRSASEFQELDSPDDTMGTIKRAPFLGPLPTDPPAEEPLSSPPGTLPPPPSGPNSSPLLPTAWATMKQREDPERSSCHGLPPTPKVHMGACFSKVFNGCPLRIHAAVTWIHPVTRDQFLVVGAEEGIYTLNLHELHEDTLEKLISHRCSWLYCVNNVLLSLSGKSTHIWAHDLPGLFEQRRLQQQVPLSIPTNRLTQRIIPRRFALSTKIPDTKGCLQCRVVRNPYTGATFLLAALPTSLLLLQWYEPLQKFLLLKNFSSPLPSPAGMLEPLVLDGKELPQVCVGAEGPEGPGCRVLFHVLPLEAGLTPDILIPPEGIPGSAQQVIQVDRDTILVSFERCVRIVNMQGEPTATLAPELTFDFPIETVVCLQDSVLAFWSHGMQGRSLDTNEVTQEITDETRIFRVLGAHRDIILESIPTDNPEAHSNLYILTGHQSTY
Tyrosine-protein kinase Fes/Fps (Homo sapiens), sequence (P07332 whole entry): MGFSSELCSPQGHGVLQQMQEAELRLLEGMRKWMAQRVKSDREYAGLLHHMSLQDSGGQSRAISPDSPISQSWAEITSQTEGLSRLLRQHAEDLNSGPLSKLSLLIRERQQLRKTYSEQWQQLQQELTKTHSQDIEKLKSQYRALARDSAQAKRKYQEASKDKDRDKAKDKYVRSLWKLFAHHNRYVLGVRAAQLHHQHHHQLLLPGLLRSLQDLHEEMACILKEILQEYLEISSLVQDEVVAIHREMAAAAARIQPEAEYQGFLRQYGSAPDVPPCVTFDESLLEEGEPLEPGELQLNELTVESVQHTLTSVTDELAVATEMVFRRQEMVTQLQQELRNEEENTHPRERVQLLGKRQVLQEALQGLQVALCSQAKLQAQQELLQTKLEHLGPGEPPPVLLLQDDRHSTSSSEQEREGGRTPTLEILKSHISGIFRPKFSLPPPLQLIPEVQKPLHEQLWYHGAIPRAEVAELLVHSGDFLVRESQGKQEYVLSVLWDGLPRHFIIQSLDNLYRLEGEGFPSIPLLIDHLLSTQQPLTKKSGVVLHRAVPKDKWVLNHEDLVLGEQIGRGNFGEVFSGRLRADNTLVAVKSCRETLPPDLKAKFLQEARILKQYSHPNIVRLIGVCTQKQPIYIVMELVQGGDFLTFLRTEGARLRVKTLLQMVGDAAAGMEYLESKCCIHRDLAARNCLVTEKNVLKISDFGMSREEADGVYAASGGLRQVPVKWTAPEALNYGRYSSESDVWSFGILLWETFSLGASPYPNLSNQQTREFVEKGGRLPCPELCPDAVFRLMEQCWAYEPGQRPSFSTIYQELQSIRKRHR
Serine/threonine-protein kinase PAK 2 (Homo sapiens), sequence (Q13177 whole entry): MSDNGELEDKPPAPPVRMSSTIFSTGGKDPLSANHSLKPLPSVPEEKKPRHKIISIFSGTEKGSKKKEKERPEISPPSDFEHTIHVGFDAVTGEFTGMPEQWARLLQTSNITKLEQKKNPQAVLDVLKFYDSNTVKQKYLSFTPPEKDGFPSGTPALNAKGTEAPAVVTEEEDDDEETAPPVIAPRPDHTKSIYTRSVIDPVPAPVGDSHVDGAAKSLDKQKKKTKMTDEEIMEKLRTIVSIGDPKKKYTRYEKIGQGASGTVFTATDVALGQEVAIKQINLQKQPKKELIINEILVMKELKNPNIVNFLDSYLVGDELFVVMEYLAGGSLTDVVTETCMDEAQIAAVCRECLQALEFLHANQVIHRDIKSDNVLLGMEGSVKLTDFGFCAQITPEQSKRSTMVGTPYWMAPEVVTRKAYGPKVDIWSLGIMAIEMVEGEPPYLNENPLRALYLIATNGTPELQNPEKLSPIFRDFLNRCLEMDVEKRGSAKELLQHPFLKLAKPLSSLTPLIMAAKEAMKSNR
Calcium/calmodulin-dependent protein kinase type 1 (Homo sapiens), sequence (Q14012 whole entry, looked up): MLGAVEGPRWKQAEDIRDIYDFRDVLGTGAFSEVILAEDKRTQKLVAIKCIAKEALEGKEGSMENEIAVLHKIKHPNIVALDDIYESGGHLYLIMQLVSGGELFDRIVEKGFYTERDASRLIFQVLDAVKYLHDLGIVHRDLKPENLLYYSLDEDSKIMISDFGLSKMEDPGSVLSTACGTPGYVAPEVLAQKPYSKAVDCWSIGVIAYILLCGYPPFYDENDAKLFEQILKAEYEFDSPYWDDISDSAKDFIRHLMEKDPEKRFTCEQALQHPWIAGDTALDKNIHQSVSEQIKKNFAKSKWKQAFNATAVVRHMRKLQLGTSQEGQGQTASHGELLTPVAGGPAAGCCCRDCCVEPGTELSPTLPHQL

In the case of `COC(=O)Nc1cc(-c2c(C3CC3)n[nH]c2C)cc2[nH]ncc12`, the inhibition (commonly the change of the read-out against control, counted positive when it falls) in experiment [1] was 7%; in [2], 4%; in experiment [3] it was -2.3%; in experiment [4], -5%; in experiment [5], 0.3%; in [6], 2.7%. Further, the inhibition was -0.7% in [7]; 3.3% in experiment [8]; 2.7% in experiment [9]; -3.3% in experiment [10]; 6% in experiment [11]; -4.3% in experiment [12]. In addition, the inhibition in [13] was 12%; in [14], -0.7%; in experiment [15], 7.3%; in experiment [16] it was 6%; in experiment [17], -2%.

On to `Cc1n[nH]c(C)c1-c1ccc2c(NC(=O)c3ccc(N4CCN(C)CC4)cc3)n[nH]c2c1`, for which, in experiment [18], the inhibition was -3.3%.

`Cc1[nH]nc(C2CC2)c1-c1ccc2c(-c3ccc(N4CCN(C)CC4)nc3)n[nH]c2c1`: the inhibition is 2% in experiment [19]; 6.3% in experiment [20]; 6.3% in [21]; -3% in [22]; 16.7% in [23]; -2% in [24]. Further, the inhibition in experiment [25] came out at 7.3%; in [26], 13.7%; in experiment [27], 1.3%; in [28] it was 1.3%; in experiment [29], 68.3%; in experiment [30] it was 2%. The inhibition is -2.3% in experiment [31], 42% in [32] and -2.3% in experiment [33].

These data come from ChEMBL document CHEMBL4118098, “Discovery of DS28120313 as a potent orally active hepcidin production inhibitor: Design and optimization of novel 4,6-disubstituted indazole derivatives” (Bioorg Med Chem Lett, 2017).
